Molecules are shown by their SMILES. The source made the active and inactive calls. How the calls were made is not given here. Residues, ends and D or L forms follow the SMILES beside them.

This assay deals with Chaperone protein DnaK (Escherichia coli (strain K12)) (UniProt P0A6Y8). The experiment in a line: binders of DnaK substrate-binding domain, biophysical, NMR, chaperone (AID 1033). Conditions: Purified DnaK SBD, NMR ligand binding.
Sequence of Chaperone protein DnaK (Escherichia coli (strain K12)) (P0A6Y8 whole entry, looked up, the tested form may be a part): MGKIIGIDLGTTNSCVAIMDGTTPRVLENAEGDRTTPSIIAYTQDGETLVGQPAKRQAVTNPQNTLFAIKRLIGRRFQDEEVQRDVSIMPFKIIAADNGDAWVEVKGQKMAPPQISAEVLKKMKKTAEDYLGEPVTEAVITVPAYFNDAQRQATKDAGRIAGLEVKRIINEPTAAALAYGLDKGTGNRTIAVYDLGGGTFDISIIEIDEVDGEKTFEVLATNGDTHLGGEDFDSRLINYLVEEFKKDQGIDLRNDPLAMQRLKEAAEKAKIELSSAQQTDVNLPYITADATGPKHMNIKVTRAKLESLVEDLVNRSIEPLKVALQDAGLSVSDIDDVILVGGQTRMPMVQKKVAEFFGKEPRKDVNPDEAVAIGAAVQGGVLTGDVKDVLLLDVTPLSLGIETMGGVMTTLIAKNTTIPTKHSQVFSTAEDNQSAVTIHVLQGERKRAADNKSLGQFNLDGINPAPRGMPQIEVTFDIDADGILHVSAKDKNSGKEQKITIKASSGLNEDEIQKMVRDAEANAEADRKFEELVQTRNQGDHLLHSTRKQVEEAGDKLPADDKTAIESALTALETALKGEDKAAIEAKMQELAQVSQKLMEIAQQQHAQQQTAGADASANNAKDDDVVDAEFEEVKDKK
Consider `C[C@@H]1CC[C@@]2(OC1)OC1C(O)C3C4CC[C@H]5C[C@H](O[C@@H]6O[C@H](CO)[C@H](O[C@@H]7O[C@H](CO)[C@@H](O)[C@H](O[C@@H]8OC[C@@H](O)[C@H](O)[C@H]8O)[C@H]7O[C@@H]7O[C@H](CO)[C@H](O)[C@H](O[C@@H]8O[C@H](CO)[C@@H](O)[C@H](O)[C@H]8O)[C@H]7O)[C@H](O)[C@H]6O)[C@H](O)C[C@]5(C)C4CC[C@]3(C)C1[C@@H]2C` (stereo partly drawn), for which the Kd (commonly a measure of binding affinity in units of concentration) was > 4 mM (inactive). For `N#Cc1c[nH]n2c(=O)cc(Cc3ccccc3)nc12`, the Kd was > 4 mM (inactive).

With `OC(c1ccccc1)c1ccccn1` (stereo not drawn), the Kd is > 4 mM (inactive). In the case of `COC(=O)C1=CO[C@@H](O[C@@H]2O[C@H](CO)[C@@H](O)[C@H](O)[C@H]2O)[C@@H]2[C@@H](C)[C@@H](O)C[C@H]12`, the Kd is > 4 mM (inactive). Take `CC(NC(=O)c1cccnc1)c1ccc2c(c1)OCO2` (stereo not drawn): the Kd is > 4 mM (inactive). The value for `CN(Cc1nc2ccccc2n1C)C(=O)c1cccs1` was > 4 mM (inactive).

For the compound `COc1ccc(C2CC(=O)NN2)cc1OC1CCCC1` (stereo not drawn), the Kd was > 4 mM (inactive).

With `Cc1ccc(-c2c(C)n([O-])c(C)c(C)[n+]2=O)cc1`, the Kd was > 4 mM (inactive). The value for `COc1ccc2c(c1)OC[C@@H](Cc1ccc(OC)c(OC)c1)[C@@H]2O` was > 4 mM (inactive); that for `NN1C(=O)/C(=C/c2ccc(O)c(O)c2)SC1=S` was > 4 mM (inactive). Turning to `Cc1ccc(-c2nn(C)c(=O)c3ccccc23)cc1CO`, the Kd was > 4 mM (inactive). The value for `O=c1cc(-c2ccc(O)cc2)oc2cc(O[C@@H]3O[C@H](CO)[C@@H](O)[C@H](O)[C@H]3O[C@@H]3OC[C@](O)(CO)[C@H]3O)cc(O)c12` was > 4 mM (inactive); that for `CC(C)=NNC(=O)c1ccccc1` was > 4 mM (inactive).

Consider `C=Cc1c(C)c2cc3[nH]c(cc4nc(cc5nc(cc1[nH]2)C(C)=C5CCC(=O)O)C(CCC(=O)O)=C4C)c(C)c3C=C`, for which the Kd was > 4 mM (inactive).

`COc1cc2ccc(=O)oc2c2ccoc12`: the Kd is > 4 mM (inactive). The value for `CC(=O)N[C@@H](CC(=O)O)C(=O)N[C@@H](CCC(=O)O)C(=O)O` (Ac-Asp-Glu-OH) was > 4 mM (inactive); that for `c1cncc(Cn2cccc2)c1` was > 4 mM (inactive); that for `Cc1cc(C(=O)N2CCN(S(C)(=O)=O)CC2)cs1` was > 4 mM (inactive). As to `COc1cccc(NC(=O)c2cccs2)c1`, the Kd is > 4 mM (inactive). For the compound `O=C(O)CCn1c(=O)oc2ccccc21`, the Kd is > 4 mM (inactive).

Turning to `S=c1oc(-c2ccncc2)nn1CCc1ccncc1`, the Kd is > 4 mM (inactive). The value for `O=C(c1cccc(C(F)(F)F)c1)N1CCCC1` was > 4 mM (inactive); that for `OC[C@H]1O[C@@](CO)(O[C@@H]2O[C@H](CO)[C@@H](O)[C@H](O)[C@H]2O)[C@@H](O[C@@H]2O[C@H](CO)[C@@H](O)[C@H](O)[C@H]2O)[C@@H]1O` was > 4 mM (inactive); that for `O=C(O)c1cc(O)c2c(c1)[C@@H]([C@H]1c3cc(C(=O)O)cc(O)c3C(=O)c3c(O[C@H]4O[C@H](CO)[C@@H](O)[C@H](O)[C@H]4O)cccc31)c1cccc(O[C@H]3O[C@H](CO)[C@@H](O)[C@H](O)[C@H]3O)c1C2=O` was > 4 mM (inactive). As for `Cc1cc(=O)cc(C)n1NC(N)=S`, the Kd was > 4 mM (inactive). The value for `NC(=O)c1ccc2c(c1)OCO2` was > 4 mM (inactive). The value for `CC1C[C@H]2CC(=O)[C@H]3CCCN4CCC[C@H]2[C@]34C1` (stereo partly drawn) was > 4 mM (inactive); that for `NCc1ccc2sccc2c1` was > 4 mM (inactive); that for `Nc1ccc(O)cn1` was > 4 mM (inactive).

On to `COC(=O)C1[C@H]2C[C@H]3c4[nH]c5ccccc5c4CCN3C[C@@H]2CC[C@@H]1O` (stereo partly drawn), for which the Kd is > 4 mM (inactive). The value for `Cc1cc(O)c(NC(=O)c2ccco2)cc1C` was > 4 mM (inactive); that for `CC(=O)Oc1cc(-c2coc3cc(OC(C)=O)c(OC(C)=O)c(OC(C)=O)c3c2=O)cc(OC(C)=O)c1OC(C)=O` was > 4 mM (inactive). Take `CCOC(=O)c1c(-c2ccncc2)csc1N`: the Kd was > 4 mM (inactive). Consider `O=C(Nc1ccccc1)N1CCOCC1`, for which the Kd is > 4 mM (inactive). The value for `CC(=O)Nc1ccc(NC(=O)N2CCOCC2)cc1` was > 4 mM (inactive); that for `O=C(O)C1C(=O)NCC1c1ccccc1` (stereo not drawn) was > 4 mM (inactive). As to `Cc1cc(NC(=O)CSc2ccnc(=O)[nH]2)no1`, the Kd was > 4 mM (inactive). The value for `CCOC(=O)CC1Sc2ccccc2NC1=O` (stereo not drawn) was > 4 mM (inactive); that for `NS(=O)(=O)c1ccc(N2CCCC2=O)cc1` was > 4 mM (inactive).

Take `O=C1CN(c2ccccc2)CC(=O)N1`: the Kd is > 4 mM (inactive).

For `COc1cc2cc3c4cc(OC)c(OC)cc4cc[n+]3c(C)c2cc1OC`, the Kd is > 4 mM (inactive).

For the compound `O=C(O)Cc1c[nH]c2ccccc12`, the Kd was > 4 mM (inactive). With `O=C1CSC(=O)N1c1cccc(O)c1`, the Kd was > 4 mM (inactive). The value for `O=c1n(-c2cccc(Cl)c2)c(=O)n2n1CCC2` was > 4 mM (inactive); that for `CC(=O)c1cc(C(N)=O)c(=S)[nH]c1C` was > 4 mM (inactive); that for `O=C1CN2C(=N1)N(Cc1ccccc1)c1ccccc12` was > 4 mM (inactive). The value for `COc1c(-c2coc3cc4c(cc3c2=O)CC(OC(C)=O)C(C)(C)O4)ccc2c1C=CC(C)(C)O2` (stereo not drawn) was > 4 mM (inactive). The value for `C=CCCCCCCCCCCCC(O)CC(O)COC(C)=O` (stereo not drawn) was > 4 mM (inactive). Turning to `Cn1c(NCc2ccccc2O)nc2ccccc21`, the Kd was > 4 mM (inactive). The value for `Cc1ccc(SCCN2C(=O)NC(C)(C)C2=O)cc1` was > 4 mM (inactive); that for `Nc1ccc(CCC(=O)O)cc1` was > 4 mM (inactive); that for `Cc1occc1C(=O)Nc1sccc1C(N)=O` was > 4 mM (inactive). The value for `O=C(O)c1ccc(-c2cnco2)cc1` was > 4 mM (inactive). The value for `CN(C)C(=O)CSc1nc2ccccc2c(=O)[nH]1` was > 4 mM (inactive); that for `N#Cc1cnn(Cc2ccc(Cl)cc2)c1N` was > 4 mM (inactive). Regarding `CC(C)=CCCC1(C)C=Cc2c(O)c3c(c(CC=C(C)C)c2O1)OC12C(=CCCC1C(C)(C)O[C@@]2(C/C=C(\C)C(=O)O)C(=O)O)C3=O` (stereo partly drawn), the Kd is > 4 mM (inactive). Turning to `CC(C)NC(=S)N1CCN(S(C)(=O)=O)CC1`, the Kd is > 4 mM (inactive). As to `COc1ccc(C(=O)/C=C2\NC(=S)NC2=O)cc1`, the Kd was > 4 mM (inactive).

In the case of `CN1C(CC(=O)c2ccccc2)CCCC1CC(O)c1ccccc1` (stereo not drawn), the Kd is > 4 mM (inactive). The value for `O=C1C2CC=CCC2C(=O)N1c1cccc(O)c1` (stereo not drawn) was > 4 mM (inactive). The value for `NS(=O)(=O)c1ccc(NC(=O)C2CC2)cc1` was > 4 mM (inactive).

`CC1CN=C(Nc2ccccc2)S1` (stereo not drawn): the Kd is > 4 mM (inactive). The value for `CN(C)C(=O)CSc1cccc2cccnc12` was > 4 mM (inactive); that for `CSc1nnc2[nH]c(=O)cc(N)n12` was > 4 mM (inactive); that for `O=c1ccn(Cc2ccccc2)c(=O)n1Cc1ccccc1` was > 4 mM (inactive).

On to `Cc1csc2nc(N)nn12`, for which the Kd was > 4 mM (inactive). Regarding `OCc1ccccc1O[C@@H]1O[C@H](CO)[C@@H](O)[C@H](O)[C@H]1O`, the Kd was > 4 mM (inactive). For `COC(=O)C[C@@H]1C2(C)C(=O)[C@@H](CC3=C4CC(O)O[C@@H](c5ccoc5)[C@]4(C)CCC32)[C@H](O)C1(C)C` (stereo partly drawn), the Kd was > 4 mM (inactive). Consider `CSc1ncc(CO)n1Cc1ccccc1`, for which the Kd was > 4 mM (inactive).

Consider `Cc1[nH]c2ccccc2c1C(=O)CSc1ncn[nH]1`, for which the Kd was > 4 mM (inactive). Consider `Cc1onc(-c2c(Cl)cccc2Cl)c1C(N)=O`, for which the Kd was > 4 mM (inactive). The value for `COCc1cc(=O)oc2cc(N)ccc12` was > 4 mM (inactive). For the compound `S=C(c1cccnc1)N1CCOCC1`, the Kd is > 4 mM (inactive). The value for `OC1(c2ccc(Cl)cc2)CCNCC1` was > 4 mM (inactive).

Consider `Cc1nnc(NCCCO)[nH]c1=O`, for which the Kd is > 4 mM (inactive). The value for `Cn1c(SCC(N)=O)nc2ccccc2c1=O` was > 4 mM (inactive). On to `C=C(C)C1(O)OC(=O)C=C1OC` (stereo not drawn), for which the Kd is > 4 mM (inactive).

As to `COc1cccc(Oc2ccc(N)cc2)c1`, the Kd was > 4 mM (inactive). With `COc1ccc2c(c1OC)C(=O)OC2[C@H]1c2c(cc3c(c2OC)OCO3)CCN1C` (stereo partly drawn), the Kd was > 4 mM (inactive). Regarding `COc1ccc(NC(=O)C2CC(=O)N=C(N)S2)cc1` (stereo not drawn), the Kd was > 4 mM (inactive).

With `S=C=NCc1ccccc1`, the Kd was > 4 mM (inactive).

On to `CC(=O)N/N=C(\C)c1cccc(N)c1`, for which the Kd is > 4 mM (inactive). Turning to `CCOc1ccccc1C(=O)NC1=NCCS1`, the Kd was > 4 mM (inactive). In the case of `COc1ccc2c(c1)CCCN2C(N)=O`, the Kd is > 4 mM (inactive).

Take `CC1(C)NC(=O)N(CCOc2ccc3c(c2)CCC3)C1=O`: the Kd is > 4 mM (inactive). As to `O=NN1C(=O)c2ccccc2C1=O`, the Kd was > 4 mM (inactive). The value for `Cc1cc(=O)oc2cc3c(cc12)OCCO3` was > 4 mM (inactive); that for `C=C1C2CC[C@@]3(C)[C@H](c4ccoc4)OC(=O)C[C@]13O[C@H]1CC(=O)C(C)(C)C(CC(=O)OC)C21C` (stereo partly drawn) was > 4 mM (inactive); that for `CCOC(=O)c1cnc2sccn2c1=O` was > 4 mM (inactive). The value for `CCCCCCCCCCCCCCCCCCOCC(O)CO` (stereo not drawn) was > 4 mM (inactive); that for `CCOC(=O)c1ccc2c(c1)nnn2C` was > 4 mM (inactive). Consider `Nc1cccc(S(=O)(=O)N2CCOCC2)c1`, for which the Kd is > 4 mM (inactive). The value for `COc1c2occc2c(OC)c2c(=O)cc(C)oc12` was > 4 mM (inactive).

The values above are taken from PubChem BioAssay AID1033 (Sanford-Burnham Center for Chemical Genomics, 2008).
